Data set [1] concerns the target hCB1 (human CB1) receptors (Homo sapiens (Human), UniProt P21554). Nature of the data set: GTPγ[35S] functional assay, CHO membrane extracts hCB1. Format: biochemical. How it is done:
(§1) Functional activity was evaluated using GTPγ[^35S] assay in CHO membrane extracts expressing recombinant hCB1 (human CB1) receptors or hCB2 (human CB2) receptors. The assay relies on the binding of GTPγ[^35S], a radiolabeled nonhydrolyzable GTP analogue, to the G protein upon binding of an agonist of the G-protein-coupled receptor. In this system, agonists stimulate GTPγ[^35S] binding whereas neutral antagonist have no effect and inverse agonists decrease GTPγ[^35S] basal binding.
(§2) The compound of Example 3 was solubilized in 100% DMSO at a concentration of 10 mM within 4 hours of the first testing session (master solution). A predilution for the dose response curve was performed in 100% DMSO and then diluted 100 fold in assay buffer at a concentration 2 fold higher than the concentration to be tested. […] For GTPγS membranes were mixed with GDP diluted in assay buffer to give 30 μM solution (volume:volume) and incubated for at least […] on ice. In parallel, GTPγ[^35S] (GE Healthcare, Catalogue number SJ1308) were mixed with the beads (PVT-WGA (GE Healthcare, RPNQ001)), diluted in assay buffer at 50 mg/ml (0.5 mg/10 μl) (volume:volume) just before starting the reaction. […] Then the plates were centrifuged for 10 min at 2000 rpm and counted for 1 min/well with a PerkinElmer TopCount reader. […]

For a further data set, the target named is CB1 (Homo sapiens (Human), UniProt P21554). Kind of data set: Radioligand competition binding, CHO-K1 membranes, [3H]SR141716A. The method, then:
Mukherjee, S., et al., Species Comparison and Pharmacological Characterization of Rat and Human CB2 Cannabinoid Receptors, Eur J Pharmacol, 2004, 505:1-9. The competition binding experiment was performed in 96 well plates (Masterblock®, Catalogue number 786201, Greiner Bio-One) containing binding buffer (50 mM Tris pH 7.4, 2.5 mM EDTA, 0.5% protease free BSA, saponine 10 μg/ml), recombinant membrane extracts (2 μg protein/well) and 1 nM [^3H] SR141716A (GE Healthcare, TRK1028, 42 Ci/mmol, diluted in binding buffer). […] The sample is incubated in a final volume of 0.1 ml for 60 min at 25° C. and then filtered on GF/C Unifilter microplate (Perkin Elmer, Catalogue number 6005177) presoaked in 0.05% Brij for 2 hrs at room temperature. Filters are washed six times with 4 ml of cold binding buffer and bound [^3H] SR141716A is determined by liquid scintillation counting. IC50 were determined by non-linear regression using one site competition equation. The inhibition constants (Ki) were calculated using the Cheng Prusoff equation (Ki=IC50/(1+(L/KD)), where L=concentration of radioligand in the assay, and KD=affinity of the radioligand for the receptor).
A general note: Displacement assays read how much labelled ligand stays bound in the presence of the test substance.

A further data set addresses CB2 (Homo sapiens (Human), UniProt P34972). Nature of the data set: Radioligand competition binding, CHO-K1 membranes, [3H]CP 55,940. Particulars: 1 nM [3H]CP 55,940, read-out: Mean Ki (nM) hCB2. How it is done: Mukherjee, S., et al., Species Comparison and Pharmacological Characterization of Rat and Human CB2 Cannabinoid Receptors, Eur J Pharmacol, 2004, 505:1-9. […] IC50 were determined by non-linear regression using one site competition equation. The inhibition constants (Ki) were calculated using the Cheng Prusoff equation (Ki=IC50/(1+(L/KD)), where L=concentration of radioligand in the assay, and KD=affinity of the radioligand for the receptor).

For data set [2], the system named is naïve rats. Kind of data set: Open field chamber testing. Format: in vivo, rat. Particulars: i.p.: Example 3 15 mg/kg, WIN 55,212-2 7 mg/kg, haloperidol 1 mg/kg. The method, then: The automated open-field chamber (Med Associates ENV-515 Test Environment, St. Albans, Vt.) 43.2×43.2×30.5 cm (L×W×H) equipped with three pairs of 16 infrared arrays that continually monitored the animal's movement was used to determine potential CNS effects of the compound of Example 3, WIN55212-2, and haloperidol in naïve rats. Rats were individually tested 15 min after i.p. drug administration. The infrared beams were set 2.5 cm apart horizontally and at a height of 3 cm above the floor, with the rearing array set at 12 cm from the floor. The area in the box was divided into 4 equal quadrants (zones), with data collected within each quadrant and across quadrants (zone entries). An ambulatory movement was defined as a motion of at least 5 cm and was coded by quadrant. Vertical movements were counted when the rat moved vertically a minimum of 12 cm from the floor. Zone entries were defined as an entry into a zone (from another zone). Entry into a zone was counted when the rat was far enough into the zone to break 2 sets of photoelectric beams for the new zone beams during an ambulatory movement.

Data set [3] addresses hCB2 (human CB2) receptors (Homo sapiens (Human), UniProt P34972). Nature of the data set: GTPγ[35S] functional assay, CHO membrane extracts hCB2. Format: biochemical. How it is done: as §1, §2
In data set [4] the test system is naïve rats. Nature of the data set: Thermal paw withdrawal latency in naïve rats. It is filed as in vivo, rat. How it is done:
To determine sensitivity to noxious heat, rats were placed in plexiglass enclosures on a transparent glass surface maintained at 30° C. and allowed to acclimate for 30 min. A thermal testing apparatus, consisting of a heat-emitting projector lamp and an electronic timer, was used. The device was activated after the lamp is placed directly beneath the planter surface of the hindpaw. The paw withdrawal latency in response to the radiant heat was recorded by a digital timer. A cutoff of 30 s was used to prevent potential tissue damage. After the baseline was measured, three groups of naïve rats (n=10) received 1.0, 3.0, or 10 mg/kg of the compound of Example 3 i.p. Response latencies were determined twice for each rat before drug injection and at 5, 10, 15, 30, 45, 60, 90 and 120 min after IP injection. The percent maximal possible effect (% MPE) was calculated as ([postdrug latency−baseline latency]/[cutoff time (30 s)−baseline latency])×100.

Each structure is given as a SMILES string.

As a reminder, the EC50 is the concentration giving half of the maximal effect. The term Ki denotes a dissociation constant, usually derived from enzyme kinetics or from competition with a known ligand. Broadly, the Emax is the maximal effect, on the per cent scale that the assay sets.

In the case of `CC1(Cc2ccccc2)COc2cc(C(=O)N3CCCCC3)ccc21` (stereo not shown) [Example 3, 3-benzyl-3-methyl-2,3-dihydrobenzofuran-6-carboxylic acid-piperidine amide], in data set [1], the “agonistic or antagonistic activities at hCB1 receptors” value is reported as “did not result in any agonistic or antagonistic activities”. For the same compound, the EC50 in data set [1] (read-out: Agonist EC50 (mean ± s.e. mean) GTPγ[35S] functional assays hCB1) was greater than 10000 nM; in data set [3] (read-out: Agonist EC50 (mean ± s.e. mean) GTPγ[35S] functional assays hCB2), 128 nM. For the same compound, the Ki is greater than 10000 nM on CB1 (CHO-K1 membranes, 1 nM [3H]SR141716A, read-out: Mean Ki (nM) hCB1) and 422 ± 123 nM on CB2. Besides, the “radioactive ligand displacement at hCB1 receptors” value at CB1 (up to 10 μM) is “did not demonstrate detectable radioactive ligand displacement”. For the same compound, the “exploratory behavior in the open field (distance traveled, ambulatory time, rearing, zone entries)” value in the data set with naïve rats [2] is recorded as “absence of psychoactive cannabinoid effect”. The compound further showed an Emax in data set [3] of 88%. Also, the “nociceptive effect of a thermal stimulus applied to hind paws” value with naïve rats [4] (1 mg/kg or 3 mg/kg i.p.) is listed as “did not block”; in the data set on naïve rats [4] (10 mg/kg i.p.), “short-lasting antinociceptive effect”.

For the origin of these results see patent publication US9339486B2, “Heterocyclic modulators of cannabinoid receptors” (THE CLEVELAND CLINIC FOUNDATION, priority 2008, dated 2016).
